Measured values reported in PubChem BioAssay AID588780 (Sanford-Burnham Center for Chemical Genomics, 2011).
Active and inactive are the calls of the source.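 How the source made its calls: active means compounds whose fitted half-maximal concentration in the cell-protection dose series is at or below a set limit; inactive means the rest.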

The molecules below were run on H9c2 cardiomyocytes, 2-deoxyglucose stress, ATP luminescence, 2 h (assay: protection of cardiomyocytes from 2-deoxyglucose injury, dose response, cell-based, 2-deoxyglucose stress, uHTS hits (AID 588780)).

| Compound | IC50 |
| --- | --- |
| COc1ccccc1CN(C)C(=O)c1cc(-c2cc(OC)c(OC)c(OC)c2)nc2ccccc12 | 6.57 µM |
| COc1ccc(NCc2cc3cc(OC)ccc3[nH]c2=O)cc1 | > 79 µM (inactive) |
| Cc1ccc(-c2[nH]c3cc(C(N)=O)ccc3c(=O)c2O)cc1 | > 79 µM (inactive) |
| Clc1nc2sccn2c1/C=N/n1cnc2ccccc21 | > 79 µM (inactive) |
| O=C(CCc1nc2ccccc2c(=O)[nH]1)N1CCN(S(=O)(=O)c2cccc(F)c2)CC1 | > 79 µM (inactive) |
| CCOC(=O)c1nc(Nc2ccc(C(=O)OC)cc2)c2ccccc2n1 | > 79 µM (inactive) |
| COc1ccc(-c2cc(C(=O)N(C)Cc3nc4ccccc4c(=O)[nH]3)c3ccccc3n2)cc1OC | > 79 µM (inactive) |
| COc1ccc(CC(=O)NCC(=O)N/N=C/c2cc(Br)ccc2OC)cc1 | > 79 µM (inactive) |
| COc1cc(/C=N/n2nnnc2Nc2ccccc2)cc(OC)c1OC | 26.8 µM |
| COc1ccc(-c2cc(-c3nnc(COC(=O)c4ccncc4)o3)c3ccccc3n2)cc1OC | 11.4 µM |
| Cc1ccc(S(=O)(=O)N2CCOCC2)cc1C(=O)Nc1nc(-c2ccccn2)cs1 | 9.58 µM |
| CCOc1ccc(S(=O)(=O)N(C)CCO)cc1-c1nc2c(C(C)(C)C)nn(C)c2c(=O)[nH]1 | 26.9 µM |
| O=C(Nc1cccnc1)c1sc(Nc2ccccc2)nc1-c1ccccc1 | > 79 µM (inactive) |
| COc1ccc(CCNC(=O)C(=O)NCC2CCCN2S(=O)(=O)c2cc(C)ccc2C)cc1 (configuration not stated) | > 79 µM (inactive) |
| Cc1ccc(-c2nn3c(C)nnc3c3ccccc23)cc1S(=O)(=O)NC(C)c1ccccc1 (configuration not stated) | > 79 µM (inactive) |
| O=c1c2ccccc2nc(CSc2ncnc3nc[nH]c23)n1-c1ccc(Cl)c(Cl)c1 | > 79 µM (inactive) |
| O=C(C[C@@H]1C/C=C/CC[C@@H](Cc2ccc(F)cc2)C(=O)O[C@@H](c2ccccc2)CNC1=O)NCCO | 15.1 µM |
| CC(OC(=O)CCc1nc2ccccc2c(=O)[nH]1)C(=O)Nc1ccc2c(c1)OCO2 (configuration not stated) | > 79 µM (inactive) |
| Cn1c2c(c(=O)n(C)c1=O)C(c1cccc([N+](=O)[O-])c1)Nc1ccccc1O2 (configuration not stated) | > 79 µM (inactive) |
| COc1ccc(CSc2nc3ccccc3c(=O)[nH]2)cc1F | > 79 µM (inactive) |
| COc1ccc(C(=O)NNC(=O)c2ccc3ccccc3n2)cc1 | > 79 µM (inactive) |
| CC1Cc2ccccc2N1C(=O)c1cc2c(=O)n3ccccc3nc2n1C (configuration not stated) | > 79 µM (inactive) |
| O=C(Nc1nc(-c2ccccn2)cs1)c1ccc(-c2ccccc2F)o1 | > 79 µM (inactive) |

| Compound | IC50 |
| --- | --- |
| O=C(CSc1ccc2nnc(-c3ccc(F)cc3)n2n1)N1CCCc2ccccc21 | 13.4 µM |
| CCOCc1c(C(=O)NC2=Nc3ccccc3NC(CC)=C2C(=O)OCC)oc2ccccc12 | > 79 µM (inactive) |
| COc1ccc(C(=O)COC(=O)C(CCCCN2C(=O)C3C4C=CC(C4)C3C2=O)N2C(=O)C3C4C=CC(C4)C3C2=O)cc1 (configuration not stated) | 13.7 µM |
| O=C(OCc1nnc(-c2ccccc2)o1)c1ccc([N+](=O)[O-])s1 | 24.8 µM |
| COc1ccc2[nH]c(=O)c(CNC3CCCCC3)cc2c1 | > 79 µM (inactive) |
| CC(C)(C)OC(=O)NCCCCCNC(=O)c1[nH]cnc1C(=O)Nc1ccc(Cl)cc1 | > 79 µM (inactive) |
| COc1ccc(/C=C/C(=O)c2ccccc2O)cc1CN1CCOCC1 | 36.7 µM (inactive) |
| O=C1c2ccccc2NC(c2ccc(-c3cccc([N+](=O)[O-])c3)o2)N1O (configuration not stated) | 28.4 µM |
| O=C(CCc1nc2ccccc2c(=O)[nH]1)NNC(=O)c1ccc(F)cc1 | > 79 µM (inactive) |
| CCOC(=O)c1ccc(NC(=O)c2nc[nH]c2C(=O)NCCCCCNC(=O)OC(C)(C)C)cc1 | 5.78 µM |
| CCC(=O)N1CCN(c2ccccc2NC(=O)c2ccc(-c3cccc([N+](=O)[O-])c3)o2)CC1 | > 79 µM (inactive) |
| NC(=O)c1ccccc1OCC(=O)Nc1cccnc1Cl | > 79 µM (inactive) |
| COc1cc(-c2nnc(COC(=O)c3cc(C)nc4ccc(C)cc34)o2)cc(OC)c1OC | 15.6 µM |
| NS(=O)(=O)c1ccc(CCNc2ccn3nc(-c4ccc(OCCN5CCOCC5)cc4)cc3n2)cc1 | 37.3 µM (inactive) |
| COc1ccc(-c2cc(-c3nnc(COC(=O)C4CC4)o3)c3ccccc3n2)cc1OC | 6.83 µM |
| Cc1cccc(/N=C/c2c(O)ccc3oc4c(c23)CCCC4)n1 | > 79 µM (inactive) |
| C/C(=N\NC(=O)c1ccccc1-n1cccc1)c1ccccn1 | > 79 µM (inactive) |
| COc1cc(/C=C/c2nc(-c3ccccc3O)n[nH]2)cc(OC)c1OC | > 79 µM (inactive) |
| CC(OC(=O)Cc1n[nH]c(=O)c2ccccc12)C(=O)Nc1ccc(F)cc1Cl (configuration not stated) | > 79 µM (inactive) |
| O=C(CSc1nc2ccccc2c(=O)[nH]1)N1CCN(S(=O)(=O)c2ccccc2)CC1 | > 79 µM (inactive) |
| COc1ccc(Cl)cc1-c1nc(-c2ccc(NC(=O)c3cccs3)cc2)no1 | > 79 µM (inactive) |
| O=C1c2ccccc2NC(c2ccc(-c3ccc(Br)cc3)o2)N1O (configuration not stated) | 19 µM |
| CCOC(=O)c1nn(-c2cccc(OC)c2)c2nc(Nc3ccccc3)cc(=O)n12 | > 79 µM (inactive) |

| Compound | IC50 |
| --- | --- |
| O=C1c2ccccc2NC(c2ccc([N+](=O)[O-])cc2)N1O (configuration not stated) | > 79 µM (inactive) |
| COc1cccc(/C=N/NC(=O)c2oc3nc(-c4ccccc4)cc(-c4ccco4)c3c2N)c1 | > 79 µM (inactive) |
| CCOc1ccc(N(CC(=O)N/N=C/c2ccccn2)S(=O)(=O)c2ccc(Cl)cc2)cc1 | > 79 µM (inactive) |
| COC(=O)c1c(C)[nH]c(C(=O)COc2ccc3ccc(=O)oc3c2)c1C | > 79 µM (inactive) |
| CCCCn1c(=NC(=O)c2cccnc2)c(C#N)cc2c(=O)n3cccc(C)c3nc21 | 33.6 µM (inactive) |
| O=C(COc1cccc2c1CCNC2=O)Nc1cccc(F)c1 | 28 µM |
| CCN1C(=O)[C@H]2[C@H]3CN=C(SCc4ccc(C#N)cc4)N3[C@@](Cc3ccccc3)(C(=O)OC)[C@H]2C1=O | > 79 µM (inactive) |
| Cc1ccc(C)c(C(=O)COC(=O)Cn2[nH]c(=O)c3ccccc3c2=O)c1 | > 79 µM (inactive) |
| CC(C)(C)OC(=O)N1CCC[C@H]1c1nnc(SCC(=O)Nc2ccc(Br)cc2)o1 | 17.7 µM |
| CCC1(CC)NC(=O)N(CC(=O)OCC(=O)Nc2ccccc2[N+](=O)[O-])C1=O | > 79 µM (inactive) |
| COc1cccc(/C=N/Nc2ncnc3scc(-c4ccccc4)c23)c1OC | > 79 µM (inactive) |
| COc1cc(-c2cc(NC(C)=O)c3ncc(-c4ccc(C(C)=O)cc4)n3c2)cc(OC)c1OC | > 79 µM (inactive) |
| CC(OC(=O)Cc1n[nH]c(=O)c2ccccc12)C(=O)Nc1ccc(F)cc1 (configuration not stated) | > 79 µM (inactive) |
| COC(=O)c1ccccc1NC(=O)c1nc2nc(C)cc(C)n2n1 | > 79 µM (inactive) |
| CCOC(=O)c1cnc(SC)nc1Oc1cccc(NC(=O)c2cccc(Cl)c2Cl)c1 | 20.4 µM |
| COc1ccc(Nc2nnc(-c3ccc(O)cc3)c3ccccc23)cc1C(N)=O | > 79 µM (inactive) |
| Cc1ccc(-c2nn3c(C)nnc3s2)cc1NC(=O)COc1ccc(Cl)cc1 | > 79 µM (inactive) |
| CC(C)NC(=O)COC(=O)Cn1[nH]c(=O)c2ccccc2c1=O | > 79 µM (inactive) |
| Oc1c(Br)cc(Cl)cc1C=Nc1ccccc1Br | 31.6 µM (inactive) |
| CN(C)C(=O)/C=C\c1cn(-c2ccccc2)nc1-c1ccc2c(c1)OCCO2 | > 79 µM (inactive) |
| CCCCc1nc2sc3c(c2c(=O)[nH]1)CCC3 | > 79 µM (inactive) |
